#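 Five compound concentrations were applied to cells in 96-well plates for 48 hours; endpoints were derived by simple linear interpolation of the resulting dose-response curve. Abbreviation: GI50, concentration required for 50% inhibition of growth. The concentration for full growth arrest is given as TGI.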
# Columns and labels:
# Test in all cases: growth of human tumour cells (NCI), 48 h
# 786-0 renal = system: 786-0 renal
# A498 renal = system: A498 renal
# A549 NSCLC = system: A549 NSCLC
# ACHN renal = system: ACHN renal
# BT-549 breast = system: BT-549 breast
# CAKI-1 renal = system: CAKI-1 renal
# CCRF-CEM leukemia = system: CCRF-CEM leukemia
# COLO 205 colon = system: COLO 205 colon
# DU-145 prostate = system: DU-145 prostate
# EKVX NSCLC = system: EKVX NSCLC
# HCC-2998 colon = system: HCC-2998 colon
# HCT-116 colon = system: HCT-116 colon
# HCT-15 colon = system: HCT-15 colon
# HL-60(TB) leukemia = system: HL-60(TB) leukemia
# HOP-62 NSCLC = system: HOP-62 NSCLC
# HOP-92 NSCLC = system: HOP-92 NSCLC
# HS 578T breast = system: HS 578T breast
# HT29 colon = system: HT29 colon
# IGROV1 ovarian = system: IGROV1 ovarian
# K-562 leukemia = system: K-562 leukemia
# KM12 colon = system: KM12 colon
# LOX IMVI melanoma = system: LOX IMVI melanoma
# M14 melanoma = system: M14 melanoma
# MALME-3M melanoma = system: MALME-3M melanoma
# MCF7 breast = system: MCF7 breast
# MDA-MB-231 breast = system: MDA-MB-231 breast
# MDA-MB-435 = system: MDA-MB-435
# MOLT-4 leukemia = system: MOLT-4 leukemia
# NCI-H226 lung = system: NCI-H226 lung
# NCI-H23 lung = system: NCI-H23 lung
# NCI-H460 lung = system: NCI-H460 lung
# NCI-H522 lung = system: NCI-H522 lung
# NCI/ADR-RES ovarian = system: NCI/ADR-RES ovarian
# OVCAR-3 ovarian = system: OVCAR-3 ovarian
# OVCAR-4 ovarian = system: OVCAR-4 ovarian
# OVCAR-5 ovarian = system: OVCAR-5 ovarian
# OVCAR-8 ovarian = system: OVCAR-8 ovarian
# PC-3 prostate = system: PC-3 prostate
# RPMI-8226 leukemia = system: RPMI-8226 leukemia
# RXF 393 renal = system: RXF 393 renal
# SF-268 CNS = system: SF-268 CNS
# SF-295 CNS = system: SF-295 CNS
# SF-539 CNS = system: SF-539 CNS
# SK-MEL-2 melanoma = system: SK-MEL-2 melanoma
# SK-MEL-28 melanoma = system: SK-MEL-28 melanoma
# SK-MEL-5 melanoma = system: SK-MEL-5 melanoma
# SK-OV-3 ovarian = system: SK-OV-3 ovarian
# SN12C renal = system: SN12C renal
# SNB-19 CNS = system: SNB-19 CNS
# SNB-75 CNS = system: SNB-75 CNS
# SW-620 colon = system: SW-620 colon
# T-47D breast = system: T-47D breast
# TK-10 renal = system: TK-10 renal
# U251 CNS = system: U251 CNS
# UACC-257 melanoma = system: UACC-257 melanoma
# UACC-62 melanoma = system: UACC-62 melanoma
# UO-31 renal = system: UO-31 renal
smiles,measurement,setting,value
CCSc1nc(SCC)c2cn[nH]c2n1,GI50,786-0 renal,> 100 µM
same,TGI,786-0 renal,> 100 µM
same,GI50,A498 renal,2.47 µM
same,TGI,A498 renal,13.1 µM
same,GI50,A549 NSCLC,46.5 µM
same,TGI,A549 NSCLC,> 100 µM
same,GI50,ACHN renal,44.3 µM
same,TGI,ACHN renal,> 100 µM
same,GI50,BT-549 breast,37.5 µM
same,TGI,BT-549 breast,> 100 µM
same,GI50,CAKI-1 renal,22.9 µM
same,TGI,CAKI-1 renal,74.6 µM
same,GI50,CCRF-CEM leukemia,41.5 µM
same,TGI,CCRF-CEM leukemia,> 100 µM
same,GI50,COLO 205 colon,34.4 µM
same,TGI,COLO 205 colon,> 100 µM
same,GI50,DU-145 prostate,30.6 µM
same,TGI,DU-145 prostate,> 100 µM
same,GI50,EKVX NSCLC,18.9 µM
same,TGI,EKVX NSCLC,> 100 µM
same,GI50,HCC-2998 colon,35.6 µM
same,TGI,HCC-2998 colon,> 100 µM
same,GI50,HCT-116 colon,36.6 µM
same,TGI,HCT-116 colon,> 100 µM
same,GI50,HCT-15 colon,66.3 µM
same,TGI,HCT-15 colon,> 100 µM
same,GI50,HL-60(TB) leukemia,72.4 µM
same,TGI,HL-60(TB) leukemia,> 100 µM
same,GI50,HOP-62 NSCLC,18.6 µM
same,TGI,HOP-62 NSCLC,> 100 µM
same,GI50,HOP-92 NSCLC,34.6 µM
same,TGI,HOP-92 NSCLC,> 100 µM
same,GI50,HS 578T breast,10.7 µM
same,TGI,HS 578T breast,48.6 µM
same,GI50,HT29 colon,62.9 µM
same,TGI,HT29 colon,> 100 µM
same,GI50,IGROV1 ovarian,49 µM
same,TGI,IGROV1 ovarian,> 100 µM
same,GI50,K-562 leukemia,67.1 µM
same,TGI,K-562 leukemia,> 100 µM
same,GI50,KM12 colon,42 µM
same,TGI,KM12 colon,> 100 µM
same,GI50,LOX IMVI melanoma,57.1 µM
same,TGI,LOX IMVI melanoma,> 100 µM
same,GI50,M14 melanoma,> 100 µM
same,TGI,M14 melanoma,> 100 µM
same,GI50,MALME-3M melanoma,> 100 µM
same,TGI,MALME-3M melanoma,> 100 µM
same,GI50,MCF7 breast,26.5 µM
same,TGI,MCF7 breast,> 100 µM
same,GI50,MDA-MB-231 breast,23.2 µM
same,TGI,MDA-MB-231 breast,> 100 µM
same,GI50,MDA-MB-435,49.6 µM
same,TGI,MDA-MB-435,> 100 µM
same,GI50,MOLT-4 leukemia,> 100 µM
same,TGI,MOLT-4 leukemia,> 100 µM
same,GI50,NCI-H226 lung,25.6 µM
same,TGI,NCI-H226 lung,> 100 µM
same,GI50,NCI-H23 lung,> 100 µM
same,TGI,NCI-H23 lung,> 100 µM
same,GI50,NCI-H460 lung,31.9 µM
same,TGI,NCI-H460 lung,> 100 µM
same,GI50,NCI-H522 lung,35.7 µM
same,TGI,NCI-H522 lung,> 100 µM
same,GI50,NCI/ADR-RES ovarian,> 100 µM
same,TGI,NCI/ADR-RES ovarian,> 100 µM
same,GI50,OVCAR-3 ovarian,38.8 µM
same,TGI,OVCAR-3 ovarian,> 100 µM
same,GI50,OVCAR-4 ovarian,84.1 µM
same,TGI,OVCAR-4 ovarian,> 100 µM
same,GI50,OVCAR-5 ovarian,69.1 µM
same,TGI,OVCAR-5 ovarian,> 100 µM
same,GI50,OVCAR-8 ovarian,62.7 µM
same,TGI,OVCAR-8 ovarian,> 100 µM
same,GI50,PC-3 prostate,39 µM
same,TGI,PC-3 prostate,> 100 µM
same,GI50,RPMI-8226 leukemia,40.2 µM
same,TGI,RPMI-8226 leukemia,> 100 µM
same,GI50,RXF 393 renal,29 µM
same,TGI,RXF 393 renal,> 100 µM
same,GI50,SF-268 CNS,26.3 µM
same,TGI,SF-268 CNS,77.5 µM
same,GI50,SF-295 CNS,> 100 µM
same,TGI,SF-295 CNS,> 100 µM
same,GI50,SF-539 CNS,21.8 µM
same,TGI,SF-539 CNS,82.9 µM
same,GI50,SK-MEL-2 melanoma,61.5 µM
same,TGI,SK-MEL-2 melanoma,> 100 µM
same,GI50,SK-MEL-28 melanoma,64.6 µM
same,TGI,SK-MEL-28 melanoma,> 100 µM
same,GI50,SK-MEL-5 melanoma,18 µM
same,TGI,SK-MEL-5 melanoma,41.8 µM
same,GI50,SK-OV-3 ovarian,39 µM
same,TGI,SK-OV-3 ovarian,> 100 µM
same,GI50,SN12C renal,47.7 µM
same,TGI,SN12C renal,> 100 µM
same,GI50,SNB-19 CNS,46.8 µM
same,TGI,SNB-19 CNS,> 100 µM
same,GI50,SNB-75 CNS,> 100 µM
same,TGI,SNB-75 CNS,> 100 µM
same,GI50,SW-620 colon,39.5 µM
same,TGI,SW-620 colon,> 100 µM
same,GI50,T-47D breast,34.2 µM
same,TGI,T-47D breast,> 100 µM
same,GI50,TK-10 renal,58.3 µM
same,TGI,TK-10 renal,> 100 µM
same,GI50,U251 CNS,65.7 µM
same,TGI,U251 CNS,> 100 µM
same,GI50,UACC-257 melanoma,89 µM
same,TGI,UACC-257 melanoma,> 100 µM
same,GI50,UACC-62 melanoma,25.6 µM
same,TGI,UACC-62 melanoma,92.7 µM
same,GI50,UO-31 renal,34.9 µM
same,TGI,UO-31 renal,> 100 µM
